Results: article PMC9075979 (Molecular Therapy, 2022)
“And” between values parts separate entries of the source, which are not always exact repeats. Identical values can stand only once. Counter-ions that a name gives are not always drawn. Like-named read-outs stand apart in the source and are kept apart here.

Columns and labels:
COVID-19 = details: cited from earlier work
[1] = biological target: SARS-CoV-2 spike RBD-ACE2 interaction (Homo sapiens, UniProt Q9BYF1); assay: biochemical; format: binding; details: for IC50: IC50 Biosensor
Chain of SARS-CoV-2 spike RBD-ACE2 interaction (Q9BYF1 18-740): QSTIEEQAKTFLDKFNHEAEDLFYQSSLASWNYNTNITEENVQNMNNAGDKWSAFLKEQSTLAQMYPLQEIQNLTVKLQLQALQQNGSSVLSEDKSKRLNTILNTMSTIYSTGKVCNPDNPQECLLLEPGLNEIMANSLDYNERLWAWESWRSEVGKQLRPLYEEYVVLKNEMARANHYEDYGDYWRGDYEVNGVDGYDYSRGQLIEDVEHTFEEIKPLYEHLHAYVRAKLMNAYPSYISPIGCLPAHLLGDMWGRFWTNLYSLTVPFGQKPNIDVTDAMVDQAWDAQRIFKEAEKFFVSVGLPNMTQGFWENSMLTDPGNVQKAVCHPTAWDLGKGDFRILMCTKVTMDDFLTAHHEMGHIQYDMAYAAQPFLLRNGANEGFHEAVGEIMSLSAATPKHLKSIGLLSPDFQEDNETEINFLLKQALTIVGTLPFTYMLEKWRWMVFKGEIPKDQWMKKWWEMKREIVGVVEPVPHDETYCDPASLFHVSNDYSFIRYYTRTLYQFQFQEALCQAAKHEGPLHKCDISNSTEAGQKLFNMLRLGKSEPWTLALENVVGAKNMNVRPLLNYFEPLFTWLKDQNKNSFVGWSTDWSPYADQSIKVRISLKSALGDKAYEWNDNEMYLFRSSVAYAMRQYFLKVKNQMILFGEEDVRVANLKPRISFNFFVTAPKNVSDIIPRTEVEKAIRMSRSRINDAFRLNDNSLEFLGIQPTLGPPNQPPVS

[2] = biological target: S1 domain of SARS-CoV-2 spike-ACE2 interaction (Homo sapiens, UniProt Q9BYF1); format: binding
Chain of S1 domain of SARS-CoV-2 spike-ACE2 interaction (Q9BYF1 18-740): as above

[3] = biological target: RBD of SARS-CoV (2002)-ACE2 interaction (Homo sapiens, UniProt Q9BYF1); assay: biochemical; format: binding
Chain of RBD of SARS-CoV (2002)-ACE2 interaction (Q9BYF1 18-740 limits assumed): as the sequence (Q9BYF1 18-740) above

[4] = tested on: SARS-CoV-2-Spike pseudotyped vesicular stomatitis virus (VSV-GFP-Spike); format: cell-based
wild-type VSV-GFP = format: cell-based
[5] = tested on: fusion between spike and ACE2 (HEK293T cells); format: cell-based
recombinant sACE2 = recombinant sACE2 (Homo sapiens, UniProt Q9BYF1); format: binding
Chain of recombinant sACE2 (Q9BYF1 19-607): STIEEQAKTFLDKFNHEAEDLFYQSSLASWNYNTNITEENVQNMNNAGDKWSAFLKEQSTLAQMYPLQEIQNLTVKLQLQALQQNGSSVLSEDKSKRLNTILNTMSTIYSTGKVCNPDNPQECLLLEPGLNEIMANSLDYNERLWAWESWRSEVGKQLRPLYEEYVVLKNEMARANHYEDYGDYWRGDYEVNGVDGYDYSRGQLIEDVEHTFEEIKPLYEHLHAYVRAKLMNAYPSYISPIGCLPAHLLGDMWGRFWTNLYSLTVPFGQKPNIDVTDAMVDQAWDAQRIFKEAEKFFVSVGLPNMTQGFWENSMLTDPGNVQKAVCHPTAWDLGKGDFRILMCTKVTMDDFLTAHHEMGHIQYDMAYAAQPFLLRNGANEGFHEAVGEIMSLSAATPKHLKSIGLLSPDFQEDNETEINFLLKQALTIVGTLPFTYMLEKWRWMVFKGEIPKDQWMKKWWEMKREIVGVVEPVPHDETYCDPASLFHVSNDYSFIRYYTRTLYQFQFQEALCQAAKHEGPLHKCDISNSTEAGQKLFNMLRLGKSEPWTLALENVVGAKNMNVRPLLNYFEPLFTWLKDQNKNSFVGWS

[6] = tested on: SARS-CoV-2 (strain 291.3 FR-4286); format: cell-based
SARS-CoV-2 = format: cell-based
[7] = tested on: SARS-CoV-2 VOCs (Alpha, Beta, Delta, cluster5); format: cell-based
VSV-Spike (strain 2) = details: mouse, in vivo
[8] = tested on: SARS-CoV-2 (FR-4286 strain); parameters: species or system K18-hACE2 mice; details: mouse, in vivo
Recombinant ACE2 = Recombinant ACE2 (Homo sapiens, UniProt Q9BYF1)
Chain of Recombinant ACE2 (Q9BYF1 18-805): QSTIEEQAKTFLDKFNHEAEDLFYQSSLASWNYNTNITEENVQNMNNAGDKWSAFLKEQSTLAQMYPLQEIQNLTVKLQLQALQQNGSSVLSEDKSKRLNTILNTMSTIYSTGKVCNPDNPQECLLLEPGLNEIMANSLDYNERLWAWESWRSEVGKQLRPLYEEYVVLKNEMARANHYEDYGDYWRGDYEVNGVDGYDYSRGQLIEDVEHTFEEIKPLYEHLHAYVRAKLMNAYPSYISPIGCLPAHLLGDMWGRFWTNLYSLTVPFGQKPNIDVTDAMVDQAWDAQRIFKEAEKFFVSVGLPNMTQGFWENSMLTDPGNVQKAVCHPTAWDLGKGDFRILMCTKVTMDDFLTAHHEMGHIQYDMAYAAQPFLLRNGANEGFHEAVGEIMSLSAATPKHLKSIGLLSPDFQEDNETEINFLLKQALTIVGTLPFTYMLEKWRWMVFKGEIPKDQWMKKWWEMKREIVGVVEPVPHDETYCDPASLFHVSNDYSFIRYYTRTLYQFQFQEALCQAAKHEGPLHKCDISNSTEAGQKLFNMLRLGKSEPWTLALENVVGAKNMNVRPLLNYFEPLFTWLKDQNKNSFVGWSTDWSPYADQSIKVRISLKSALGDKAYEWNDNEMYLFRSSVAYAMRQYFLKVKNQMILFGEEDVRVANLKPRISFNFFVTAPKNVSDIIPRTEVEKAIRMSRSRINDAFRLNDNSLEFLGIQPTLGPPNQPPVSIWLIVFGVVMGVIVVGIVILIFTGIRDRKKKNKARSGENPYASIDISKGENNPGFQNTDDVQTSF

[9] = mouse, in vivo
[10] = in vivo, 0.016 mg/kg; cited from earlier work
[11] = rabbit, in vivo; cited from earlier work
LATS biosensor = format: binding; details: 4 μM
wild-type nanoluciferase = wild-type nanoluciferase (Oplophorus gracilirostris, UniProt Q9GV45, A31E/A60N/A81I/F95D/I117V/K70R/L54V/L99Q/M102K/N193R/P142E/Q151K/Q38R/Q45L/V71I/Y165I); format: biochemical; details: 4 μM
[12] = method B, newly purchased drugs, 2–25 μM, Figure 2D
[13] = Prestwick library screen, 4 μM, compound added to pre-formed RBD:ACE2 complex
[14] = Prestwick library screen, 4 μM, compound added to LgBiT-RBD, then SmBiT-ACE2
[15] = read-out: inhibition of bioreporter signal, SARS-CoV RBD/ACE2, both methods

CC(C)C(=O)OC[C@H]1O[C@@H](n2ccc(NO)nc2=O)[C@H](O)[C@@H]1O [Molnupiravir]
reduction of hospitalization or death (COVID-19; oral treatment, clinical): 50%

c1ccc(-c2ccc(C(c3ccccc3)n3ccnc3)cc2)cc1 (stereo not drawn) [bifonazole]
bioreporter complementation, pre-treatment of ACE2 followed by RBD [1]: complete abrogation of bioreporter complementation and luminescence | concentration inhibiting WT ACE2 binding to the RBD to similar levels as αRBD [1]: 3.29 µM | reduction in bioreporter signal, method A [1]: −46% | reduction in bioreporter signal, method B [1]: −51% | IC50 [1]: 1.3 µM and 1.6 µM | inhibition at 4 µM ([1]; read-out: peak inhibition, pre-treatment of RBD followed by ACE2): 50% | inhibition at 3.29 µM ([1]; read-out: signal inhibition): 80% | reduction in binding, ACE2 and S1 domain of spike [2]: ~30% | inhibition at 4 µM ([3]; read-out: inhibition of luminescence, SARS-CoV RBD/ACE2, method A): 45% | inhibition at 4 µM ([3]; read-out: inhibition of luminescence, SARS-CoV RBD/ACE2, method B): 22% | VSV-Spike plaque size [4]: reduction in VSV-Spike plaque size | concentration giving spike-specific reduction in viral growth [4]: ~35 µM | immunofluorescent VSV staining, spike-pseudotyped VSV strains [4]: complete abrogation of VSV staining | viral entry of pseudotyped VSV-Spike [4]: significant impairment in viral entry | WT VSV infection (entry) (wild-type VSV-GFP): largely unaffected | WT VSV plaque size (wild-type VSV-GFP): no effect on WT VSV | fusion of ACE2- and ACE2/TMPRSS2-expressing cells with spike-expressing HEK293T cells [5]: dose-dependent reduction in fusion | effect on sACE2 unfolding by urea (recombinant sACE2): stabilizes sACE2 | spike protein levels (immunoblotting) [6]: dramatic reduction in spike protein levels | viral burden by TCID50 assay [6]: reduced | viral mRNA levels (qPCR) [6]: significant reduction in viral mRNA levels | viral mRNA and infectious particles (TCID50) (SARS-CoV-2): reduction in viral mRNA as well as infectious particles | viral RNA levels of VOCs [7]: significant reduction in output of the VOCs | reduction in pY705-Stat3 in the lungs (VSV-Spike (strain 2)): ~50% | reduction of lethality (VSV-Spike (strain 2)): 40% | survival (VSV-Spike (strain 2)): 2 of 5 | survival of challenged mice (VSV-Spike (strain 2)): 40% | viral load in lungs by qRT-PCR (VSV-Spike (strain 2)): significant reduction in viral load | survival [8]: 8 of 11 | weight after infection [8]: lost less weight | concentration up to which no overt toxicity (VeroE6 and VeroAT cells; African green monkey): up to 100 μM | inhibition of ACE2 enzymatic activity (Recombinant ACE2): does not involve inhibition of ACE2 enzymatic activity | effect on viability (VeroE6-hTMPRSS2 cells): no effect on viability at the antiviral dose tested | effect on cell viability (A549-hACE2 cells): no effect on cell viability at the dose tested | tolerability [9]: well tolerated | half-life (t1/2), first phase of biphasic elimination [10]: 7 h | half-life (t1/2), second phase of biphasic elimination [10]: 42 h | oral doses that could result in embryotoxicity [11]: > 30 mg/kg

COc1cc(N)c(Cl)cc1C(=O)NC1CCN(CCCOc2ccc(F)cc2)CC1OC (stereo not drawn) [cisapride]
IC50 [1, 12]: 16.5 µM | reduction in luminescence with the LATS biosensor (LATS biosensor): −13% | reduction in luminescence with nanoluciferase on its own (wild-type nanoluciferase): not nanoluciferase on its own | effect on VSV infection [4]: did not affect VSV infection at all concentrations tested | toxic at doses of more than (VeroE6 and VeroAT cells; VeroE6 / VeroAT, 48 h): more than 20 μM

Clc1ccccc1C(c1ccccc1)(c1ccccc1)n1ccnc1 [clotrimazole]
reduction in bioreporter signal, method A [1, 13]: −21%

Clc1ccc(COC(Cn2ccnc2)c2ccc(Cl)cc2Cl)cc1 (stereo not drawn) [econazole nitrate, econazole nitrate salt]
reduction in bioreporter signal, method B [1, 14]: −23% | reduction in bioreporter signal, method A [1, 13]: −36%

C#C[C@]1(O)CC[C@H]2[C@@H]3CCc4cc(O)ccc4[C@H]3CC[C@@]21C [ethynylestradiol, 17a-ethynylestradiol]
IC50 [1, 12]: 2.6 µM | inhibition at 4 µM [3, 15]: 3 to 6%

CCC(C)n1ncn(-c2ccc(N3CCN(c4ccc(OCC5COC(Cn6cncn6)(c6ccc(Cl)cc6Cl)O5)cc4)CC3)cc2)c1=O (stereo not drawn) [itraconazole]
efficacy in hospitalized individuals (COVID-19; administered orally, clinical study): no efficacy

CC(=O)N1CCN(c2ccc(OCC3COC(Cn4ccnc4)(c4ccc(Cl)cc4Cl)O3)cc2)CC1 (stereo not drawn) [ketoconazole]
IC50 ([1]; method B, imidazole comparison, Figure 3B): 14.5 µM | reduction in bioreporter signal, method A [1, 13]: −29% | concentration giving spike-specific reduction in viral growth [4]: ~80 µM

COC(=O)C1=C(C)NC(C)=C(C(=O)OCCN(C)Cc2ccccc2)C1c1cccc([N+](=O)[O-])c1 (stereo not drawn) [nicardipine, nicardipine HCl]
IC50 [1, 12]: 1.9 µM | inhibition at 4 µM [3, 15]: 3 to 6%

CCOC1O[C@H]([C@@H](COCc2ccccc2)OCc2ccccc2)[C@H](OCc2ccccc2)[C@H]1O (stereo partly drawn) [tribenoside]
reduction in bioreporter signal, method B [1, 14]: −9% | reduction in bioreporter signal, method A [1, 13]: −21%
